Test results as given in ChEMBL document CHEMBL3351825, “Polyoxypregnane steroids from the stems of Marsdenia tenacissima” (J Nat Prod, 2014).
Values belong to the compound of their own block, whether it stands above or below them. Calls of active or inactive are those of the source. The calls are words filed in the database; no cut-off is given here.

Tests used:
[1] = Reversal of P-gp-mediated resistance to doxorubicin in human SW620/AD300 cells assessed as reduction in doxorubin IC50 at 10 uM after 72 hrs by SRB assay; type: cell-based; settings: SW620/AD300, 72 h
cells = settings: Homo sapiens, SW620/AD300, 72 h
Description: Growth inhibition of human SW620/AD300 cells after 72 hrs by SRB assay

SW-620 [2] = assay: Ratio of IC50 for human SW620/AD300 cells to IC50 for human SW620 cells; type: functional
SW-620 [3] = assay: cells; settings: Homo sapiens, SW-620, 72 h
Description: Growth inhibition of human SW620 cells after 72 hrs by SRB assay

[4] = Cytotoxicity against human H460 cells after 72 hrs by SRB assay; settings: NCI-H460, 72 h
NCI-H292 [5] = assay: Cytotoxicity against human NCI-H292 cells after 72 hrs by SRB assay; type: functional, cell-based; settings: NCI-H292, 72 h
[6] = Cytotoxicity against human H460/Vbl cells after 72 hrs by SRB assay
[7] = Reversal of P-gp-mediated resistance to cisplatin in human SW620/AD300 cells assessed as reduction in doxorubin IC50 at 10 uM after 72 hrs by SRB assay; type: cell-based; settings: SW620/AD300, 72 h
[8] = Reversal of P-gp-mediated resistance to cisplatin in human SW620 cells assessed as reduction in doxorubin IC50 at 2 uM after 72 hrs by SRB assay; type: cell-based; settings: SW-620, 72 h
[9] = Reversal of P-gp-mediated resistance to doxorubicin in human SW620/AD300 cells assessed as reduction in doxorubin IC50 at 2 uM after 72 hrs by SRB assay; type: cell-based; settings: SW620/AD300, 72 h
[10] = Reversal of P-gp-mediated resistance to cisplatin in human SW620/AD300 cells assessed as reduction in doxorubin IC50 at 2 uM after 72 hrs by SRB assay; type: cell-based; settings: SW620/AD300, 72 h
NCI-H292 [11] = assay: Induction of apoptosis in human NCI-H292 cells at 10 uM after 24 hrs using annexin V by flow cytometry in presence of 1 uM gefitinib; type: functional, cell-based
NCI-H460 [12] = assay: Induction of apoptosis in human NCI-H460/Vbl cells at 10 uM after 24 hrs using annexin V by flow cytometry in presence of 1 uM gefitinib; type: functional, cell-based
[13] = target: T1, ATP-dependent translocase ABCB1 (Homo sapiens, UniProt P08183); assay: Inhibition of P-gp in human SW620/AD300 cells assessed as reduction in rhodamine 123 efflux by flow cytometry; type: cell-based
[14] = Reversal of P-gp-mediated resistance to cisplatin in human SW620 cells assessed as reduction in doxorubin IC50 at 10 uM after 72 hrs by SRB assay; type: cell-based; settings: SW-620, 72 h
NCI-H460 [15] = assay: Induction of apoptosis in human NCI-H460 cells at 10 uM after 24 hrs using annexin V by flow cytometry in presence of 1 uM gefitinib; type: functional, cell-based
NCI-H460 [16] = assay: Induction of apoptosis in human NCI-H460 cells at 10 uM after 24 hrs using annexin V by flow cytometry; type: functional, cell-based
[17] = Reversal of P-gp-mediated resistance to doxorubicin in human SW620 cells assessed as reduction in doxorubin IC50 at 2 uM after 72 hrs by SRB assay; type: cell-based; settings: SW-620, 72 h
NCI-H292 [18] = assay: Induction of apoptosis in human NCI-H292 cells at 10 uM after 24 hrs using annexin V by flow cytometry; type: functional, cell-based
[19] = target: T1, ATP-dependent translocase ABCB1; assay: Inhibition of P-gp in human SW620/AD300 cells assessed as reduction in rhodamine 123 efflux at 50 uM by flow cytometry; type: cell-based; settings: sw620/ad300, 50 µM
NCI-H460 [20] = assay: Induction of apoptosis in human NCI-H460/Vbl cells at 10 uM after 24 hrs using annexin V by flow cytometry; type: functional, cell-based
[21] = Reversal of P-gp-mediated resistance to doxorubicin in human SW620/AD300 cells assessed as reduction in doxorubin IC50 at 400 nM after 72 hrs by SRB assay; type: cell-based; settings: SW620/AD300, 72 h
[22] = Reversal of P-gp-mediated resistance to doxorubicin in human SW620 cells assessed as reduction in doxorubin IC50 at 400 nM after 72 hrs by SRB assay; type: cell-based; settings: SW-620, 72 h
SW-620 [23] = assay: Reversal of P-gp-mediated resistance assessed as ratio of doxorubicin IC50 for human SW620/AD300 cells to doxorubicin IC50 for human SW620 cells in presence of compound at 400 nM; type: cell-based

T1 sequence (P08183 whole entry): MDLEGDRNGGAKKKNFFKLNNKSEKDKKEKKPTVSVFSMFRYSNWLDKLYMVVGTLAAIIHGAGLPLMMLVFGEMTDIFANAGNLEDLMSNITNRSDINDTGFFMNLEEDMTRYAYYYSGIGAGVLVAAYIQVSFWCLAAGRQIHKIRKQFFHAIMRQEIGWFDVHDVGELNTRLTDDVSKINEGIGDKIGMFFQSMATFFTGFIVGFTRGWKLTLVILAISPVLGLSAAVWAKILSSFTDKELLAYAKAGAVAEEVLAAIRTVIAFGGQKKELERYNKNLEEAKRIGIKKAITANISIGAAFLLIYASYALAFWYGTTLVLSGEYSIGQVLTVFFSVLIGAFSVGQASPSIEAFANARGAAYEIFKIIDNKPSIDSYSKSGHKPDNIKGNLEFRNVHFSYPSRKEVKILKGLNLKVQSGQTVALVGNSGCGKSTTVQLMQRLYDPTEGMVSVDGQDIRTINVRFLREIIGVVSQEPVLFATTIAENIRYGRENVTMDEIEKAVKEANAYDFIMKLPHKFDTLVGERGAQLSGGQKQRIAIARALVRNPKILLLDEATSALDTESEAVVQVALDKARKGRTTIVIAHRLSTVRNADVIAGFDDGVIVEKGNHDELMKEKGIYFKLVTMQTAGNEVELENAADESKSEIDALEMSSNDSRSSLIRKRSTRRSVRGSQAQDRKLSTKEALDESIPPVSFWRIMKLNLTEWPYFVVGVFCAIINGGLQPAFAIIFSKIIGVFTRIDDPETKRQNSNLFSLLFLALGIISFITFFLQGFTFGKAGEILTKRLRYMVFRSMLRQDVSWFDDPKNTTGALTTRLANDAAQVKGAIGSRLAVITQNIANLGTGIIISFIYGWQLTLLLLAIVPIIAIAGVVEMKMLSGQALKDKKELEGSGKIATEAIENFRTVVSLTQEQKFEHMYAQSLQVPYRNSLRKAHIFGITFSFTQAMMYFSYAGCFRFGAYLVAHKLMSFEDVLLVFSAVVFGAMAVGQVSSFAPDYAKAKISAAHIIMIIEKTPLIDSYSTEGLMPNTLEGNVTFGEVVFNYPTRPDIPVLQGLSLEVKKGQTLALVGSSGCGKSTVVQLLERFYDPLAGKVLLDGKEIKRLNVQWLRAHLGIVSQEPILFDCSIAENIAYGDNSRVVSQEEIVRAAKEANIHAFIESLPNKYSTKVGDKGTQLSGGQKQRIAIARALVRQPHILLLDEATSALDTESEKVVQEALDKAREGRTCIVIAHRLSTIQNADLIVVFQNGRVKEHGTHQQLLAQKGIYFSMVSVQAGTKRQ

SMILES: C/C=C(\C)C(=O)O[C@@H]1[C@@H](O)[C@]2(C)[C@@H](C(C)=O)CC[C@@]23O[C@]32CC[C@H]3C[C@@H](O[C@H]4C[C@@H](OC)[C@H](O[C@@H]5O[C@H](C)[C@@H](O[C@@H]6O[C@H](CO)[C@@H](O)[C@H](O)[C@H]6O)[C@@H](OC)[C@H]5O)[C@@H](C)O4)CC[C@]3(C)[C@@H]12
IC50 [1]: 23.9 µM

SMILES: CO[C@H]1[C@@H](O)[C@H](O[C@@H]2[C@@H](C)O[C@@H](O[C@H]3CC[C@@]4(C)[C@@H](CC[C@@]56O[C@@]57CC[C@H](C(C)=O)[C@@]7(C)[C@H](O)[C@@H](OC(C)=O)[C@H]46)C3)C[C@H]2OC)O[C@H](C)[C@H]1O
IC50 [1]: 23.4 µM

SMILES: C/C=C(\C)C(=O)O[C@@H]1[C@@H](O)[C@]2(C)[C@@H](C(C)=O)CC[C@@]23O[C@]32CC[C@H]3C[C@@H](O[C@H]4C[C@@H](OC)[C@H](O[C@@H]5O[C@H](C)[C@@H](O)[C@@H](OC)[C@H]5O)[C@@H](C)O4)CC[C@]3(C)[C@@H]12
IC50 [1]: 25.6 µM

IC50 (cells): 28.2 µM | IC50 (SW-620 [3]): 0.17 µM
SMILES: COc1cccc2c1C(=O)c1c(O)c3c(c(O)c1C2=O)C[C@@](O)(C(=O)CO)C[C@@H]3O[C@H]1C[C@H](N)[C@H](O)[C@H](C)O1 [DOXORUBICIN]
Ratio IC50 (SW-620 [2]): 166

SMILES: CO[C@H]1[C@@H](O)[C@H](O[C@@H]2[C@@H](C)O[C@@H](O[C@H]3CC[C@@]4(C)[C@@H](CC[C@@]56O[C@@]57CC[C@H](C(C)=O)[C@@]7(C)[C@H](OC(C)=O)[C@@H](OC(=O)c5ccccc5)[C@H]46)C3)C[C@H]2OC)O[C@H](C)[C@H]1O[C@@H]1O[C@H](CO)[C@@H](O[C@@H]2O[C@H](CO)[C@@H](O)[C@H](O)[C@H]2O)[C@H](O)[C@H]1O
IC50 [1]: 26.8 µM

SMILES: C#Cc1cccc(Nc2ncnc3cc(OCCOC)c(OCCOC)cc23)c1 [ERLOTINIB]
IC50 [4]: 9.5 µM | IC50 (NCI-H292 [5]): 1 µM | IC50 [6]: 21.5 µM

SMILES: CCC(C)C(=O)O[C@@H]1[C@@H](OC(C)=O)[C@]2(C)[C@@H](C(C)=O)CC[C@@]23O[C@]32CC[C@H]3CC(=O)CC[C@]3(C)[C@@H]12 (stereo not given in full)
IC50 [7]: 10.2 µM | IC50 [8]: 11.5 µM | IC50 [9]: 2.1 µM | IC50 [10]: 12 µM | Activity (NCI-H292 [11]): Active | IC50 [1]: 0.85 µM | Activity (NCI-H460 [12]): Active | inhibition (INH) [13]: Dose-dependent effect | IC50 [14]: 9.4 µM | Activity (NCI-H460 [15]): Active | Activity (NCI-H460 [16]): inactive | IC50 [17]: 0.11 µM | Activity (NCI-H292 [18]): inactive | inhibition (INH) [19]: Active | Activity (NCI-H460 [20]): inactive

SMILES: CO[C@H]1[C@@H](O)[C@H](O[C@@H]2[C@@H](C)O[C@@H](O[C@H]3CC[C@@]4(C)[C@@H](CC[C@@]56O[C@@]57CC[C@H](C(C)=O)[C@@]7(C)[C@H](O)[C@@H](OC(=O)c5ccccc5)[C@H]46)C3)C[C@H]2OC)O[C@H](C)[C@H]1O
IC50 [1]: 23.4 µM

SMILES: CO[C@H]1[C@@H](O)[C@H](O[C@@H]2[C@@H](C)O[C@@H](O[C@H]3CC[C@@]4(C)[C@@H](CC[C@@]56O[C@@]57CC[C@H](C(C)=O)[C@@]7(C)[C@H](O)[C@@H](O)[C@H]46)C3)C[C@H]2OC)O[C@H](C)[C@H]1O[C@@H]1O[C@H](CO)[C@@H](O)[C@H](O)[C@H]1O
IC50 [1]: 24.8 µM

SMILES: C/C=C/C[C@@H](C)C(=O)[C@H]1C(=O)N[C@@H](C(C)C)C(=O)N(C)CC(=O)N(C)[C@@H](CC(C)C)C(=O)N[C@@H](C(C)C)C(=O)N(C)[C@@H](CC(C)C)C(=O)N[C@@H](C)C(=O)N[C@H](C)C(=O)N(C)[C@@H](CC(C)C)C(=O)N(C)[C@@H](CC(C)C)C(=O)N(C)[C@@H](C(C)C)C(=O)N1C [VALSPODAR]
IC50 [21]: 0.22 µM | IC50 [22]: 0.1 µM | Ratio IC50 (SW-620 [23]): 2
